Experimental data as given in publication PMC6981454, “Promising 2,6,9-Trisubstituted Purine Derivatives for Anticancer Compounds: Synthesis, 3D-QSAR, and Preliminary Biological Assays” (International Journal of Molecular Sciences, 2019).
Where two headings read alike, the source gives them in different places.

Assays:
HL-60 = test: MTT cytotoxicity assay, 72 h; assay type: cell-based, human; conditions: for Selectivity Index (SI) MRC-5/HL-60: IC50 in MRC-5 / IC50 in HL-60
Description: (§1) In our study, the human cancer cell lines used were CFAPC- 1 (pancreatic adenocarcinoma); NCI-H460 (large cell lung); HL-60 (acute promyelocytic leukaemia); CACO2 (colorectal adenocarcinoma); HCT-116 (colorectal carcinoma); K562 (chronic myeloid leukaemia); MCF-7 (breast adenocarcinoma); and MRC-5 control cells (normal fibroblasts).
(§2) CFAPC-1, NCI-H460 H1975, HL-60, HCT-116, CACO2, K562, MCF-7, and MCR-5 were grown and maintained in RPMI 1640 and DMEM F12 as appropriate with 10% fetal bovine serum, 100 UI/mL penicillin–streptomycin, and cultured al 37 °C in 5% CO2 humidified atmosphere. Control cultures were treated with dimethyl sulfoxide (1%) alone at the same concentration as in the purine derivatives treatment. Cell viability was determined by trypan blue dye exclusion. Cell numbers were counted in hemocytometer by light microscopy.
(§3) Cytotoxicity assays were performed by using the MTT reduction method as described in the literature. Briefly, cancer cell lines were plated in a flat-bottom 96-wells plate at 1 × 10^4 cells per well density. Then, the cells were incubated with synthetized compounds at different concentrations (from 0.1 to 100 µM) in 200 µL of 10% fetal bovine serum-RPMI or EMEM culture medium at 37 °C for 72 h. Then, 10 µL of MTT was added at a final concentration of 0.5 mg/mL, incubated at 37 °C for 4 h, and then solubilized with 10% sodium dodecyl sulphate (SDS) in 0.1 mM HCl and incubated overnight at 37 °C. Formazan formation was measured at 570 nm in a multi-well reader (StatFax 4200).

NCI-H460 = test: MTT cytotoxicity assay, 72 h; assay type: cell-based, human; conditions: for Selectivity Index (SI) MRC-5/NCI-H460: IC50 in MRC-5 / IC50 in NCI-H460
Description: as §1, §2, §3

CFPAC-1 = test: MTT cytotoxicity assay, 72 h; assay type: cell-based, human; conditions: Homo sapiens, CFPAC-1, IC50 ± SD
Description: as §1, §2, §3

HCT-116 = test: MTT cytotoxicity assay, 72 h; assay type: cell-based, human; conditions: Homo sapiens, HCT-116, IC50 ± SD
Description: as §1, §2, §3

MCF-7 = test: MTT cytotoxicity assay, 72 h; assay type: cell-based, human; conditions: for IC50: Homo sapiens, MCF7, 72 h, MTT, 72 h, IC50 ± SD; for Selectivity Index (SI) MRC-5/MCF-7: IC50 in MRC-5 / IC50 in MCF-7
Description: as §1, §2, §3

K562 = test: MTT cytotoxicity assay, 72 h; assay type: cell-based, human; conditions: for IC50: MTT, 72 h, IC50 ± SD; for Selectivity Index (SI) MRC-5/K562: IC50 in MRC-5 / IC50 in K562
Description: as §1, §2, §3

MRC-5 = test: MTT cytotoxicity assay, 72 h, normal control cells; assay type: cell-based, human; conditions: Homo sapiens, MRC5, IC50 ± SD, normal fibroblasts
Description: as §1, §2, §3

CACO2 = test: MTT cytotoxicity assay, 72 h; assay type: cell-based, human; conditions: Homo sapiens, Caco-2, IC50 ± SD
Description: Cytotoxicity assays were performed by using the MTT reduction method as described in the literature [23, 37]. Briefly, cancer cell lines were plated in a flat-bottom 96-wells plate at 1 × 10^4 cells per well density. Then, the cells were incubated with synthetized compounds at different concentrations (from 0.1 to 100 µM) in 200 µL of 10% fetal bovine serum-RPMI or EMEM culture medium at 37 °C for 72 h. Then, 10 µL of MTT was added at a final concentration of 0.5 mg/mL, incubated at 37 °C for 4 h, and then solubilized with 10% sodium dodecyl sulphate (SDS) in 0.1 mM HCl and incubated overnight at 37 °C. Formazan formation was measured at 570 nm in a multi-well reader (StatFax 4200).

pERK1/2 = test: Western blotting of pERK1/2 in MCF-7 cells; assay type: cell-based, human; conditions: 10 µM, 1 h
Description: Cell lysates were prepared by harvesting cells in Laemmli sample buffer. Proteins were separated on SDS polyacrylamide gels and electroblotted onto nitrocellulose membranes. After blocking, the membranes were incubated with specific primary antibodies overnight, washed, and then incubated with peroxidase-conjugated secondary antibodies. Finally, peroxidase activity was detected with SuperSignal West Pico reagents (Thermo Scientific, Waltham, MA, USA) using a CCD camera LAS-4000 (Fujifilm). Specific antibodies were purchased from Sigma-Aldrich (anti-α-tubulin, clone DM1A; peroxidase-labeled secondary antibodies) and Cell Signaling (anti-PARP, clone 46D11; anti-ERK1/2; anti-phospho-ERK1/2 T202/Y204).

HL-60 cells = test: Cell viability by propidium iodide flow cytometry; assay type: cell-based, human; conditions: HL-60, 50 μM, 24 h, PI staining
Source text: Next, in order to determinate the cell death type induced by the most promising compounds, we performed a flow cytometry analysis of cell viability in cell line HL-60 treated with the most promising compounds (selected according to their IC50 values and SI). The HL-60 cancer cells were chosen due to their sensitivity to prepared compounds. […] As a preliminary apoptosis filter, propidium iodide (PI) staining was used through flow cytometry analysis which discriminated a population of viable cells impermeable to PI (PI negative) from necrotic cells PI-permeable (PI positive) and apoptotic cells (the difference of the previous two). The results are shown in Figure 7, illustrating that all purine derivatives tested induced apoptosis on HL-60 cells. Around 40% of apoptotic cells were detected in a culture treated with compounds 7a and 7i, 30% by 7e, 7g, and 7h and 70% by 7d and 7j. […] (For dot plots, see Supplementary Information Figures S1–S3.)
Cell viability was analyzed by flow cytometry as previously described. In this assay, after setting the baseline to exclude cell debris, cells impermeable to propidium iodide (PI negative) are considered as viable. Two populations of PI-permeable dead cells are distinguished based on fluorescence intensity, corresponding to either hypodiploid apoptotic cells or necrotic cells with intact DNA. Here, HL60 cells were incubated with concentrations of 50 µM of each compound for 24 h at 37 °C. Cells were harvested and stained with 10 µg/mL of propidium iodide to determine cell viability. Samples containing roughly 1 × 10^4 cells were evaluated by flow cytometry (FACScanto II; Becton Dickinson, Mountain View, CA) and analyzed using FCS Express v6 software. Three independent biological replicates were performed.

MCF7 cells = test: Cell cycle distribution of MCF7 cells; assay type: cell-based, human; conditions: Figure S5
cancer cell lines = conditions: cited from earlier work
p53 = test: p53-dependent transcriptional activity reporter assay (β-galactosidase) in Arn-8 cells; assay type: cell-based, human; conditions: Arn-8 cells, 24 h incubation, Table S3, control compound
Description: Table S3. Results of p53 activity of compounds 4a-u and 7a-j.
Compound fold p53 activity […]
p53-dependent transcriptional activity
To measure p53-dependent transcriptional activity, -galactosidase activity was determined in the human melanoma cell line Arn-8, stably transfected with a p53-responsive reporter construct pRGC foslacZ as described before. After 24 h incubation with the inhibitors, the cells were permeabilized with 0.3% Triton X-100 for 15 min, and then 4-methylumbelliferon-ß-D-galactopyranoside was added as a substrate to a final concentration of 80 µM. […]
fluorescence was measured at 355/460 nm (ex/em) with a Fluoroskan Ascent microplate reader […]
Figure S6. Dose-response effect of roscovitine on p53 activity in ARN8 cells (control experiment).
(1 picture or pasted object on this page, not shown here)

[1] = target: Hedgehog (Hh) signaling pathway; set-up: method as in PMID 24923765; conditions: cited from earlier work
[2] = Homo sapiens, HL-60, 72 h, MTT, 72 h, IC50 ± SD, read-out: IC50 HL-60
[3] = Homo sapiens, NCI-H460, 72 h, MTT, 72 h, IC50 ± SD, read-out: IC50 NCI-H460
[4] = Homo sapiens, HL-60, -logIC50 in molar concentration, Table S1, read-out: Experimental pIC50 (HL-60) (converted)
[5] = Homo sapiens, NCI-H460, -logIC50 in molar concentration, Table S2, read-out: Experimental pIC50 (NCI-H460) (converted)
[6] = MTT, 72 h, IC50 ± SD, read-out: IC50 NCI-H460

Row | SMILES | melting point | IC50 (HL-60; [2]) | IC50 (NCI-H460; [3]) | IC50 (CFPAC-1) | IC50 (HCT-116) | IC50 (MCF-7) | IC50 (K562; Homo sapiens, K562, 72 h) | IC50 (MRC-5) | IC50 (CACO2) | IC50 (HL-60; [4]) | Selectivity Index (SI) MRC-5/HL-60 (HL-60) | other results
1 | CCn1cnc2c(-c3ccc(OC(F)(F)F)cc3)nc(NC3CCCC3)nc21 [4a, N-cyclopentyl-9-ethyl-6-(4-(trifluoromethoxy)phenyl)-9H-purin-2-amine] | 85 to 87 °C | 38 ± 3 µM | > 100 µM | > 100 µM | > 50 µM | > 25 µM | > 25 µM | > 100 µM | > 100 µM |  |  | 
2 | CCCCn1cnc2c(-c3ccc(OC(F)(F)F)cc3)nc(NC3CCCCCC3)nc21 [4i, 9-Butyl-N-cycloheptyl-6-(4-(trifluoromethoxy)phenyl)-9H-purin-2-amine] | 72 to 74 °C | 19 ± 3.9 µM | > 100 µM | > 100 µM | > 50 µM | > 25 µM | > 25 µM | > 100 µM | > 100 µM | 19 µM |  | 
3 | CCCCCn1cnc2c(-c3ccc(OC(F)(F)F)cc3)nc(NC3CCCCCC3)nc21 [4j, N-cycloheptyl-9-pentyl-6-(4-(trifluoromethoxy)phenyl)-9H-purin-2-amine] | 50 to 53 °C | < 6 µM | > 100 µM | > 100 µM | > 50 µM | > 25 µM | > 25 µM | > 100 µM | > 100 µM | 6 µM | > 16.7 | IC50 (HL-60; MTT, 72 h, IC50 ± SD, read-out: IC50 HL-60): 6 ± 0.8 µM
4 | CCCCCCn1cnc2c(-c3ccc(OC(F)(F)F)cc3)nc(NC3CCCCCC3)nc21 [4k, N-cycloheptyl-9-Hexyl-6-(4-(trifluoromethoxy)phenyl)-9H-purin-2-amine] | 68 to 70 °C | 12 ± 0.6 µM | > 100 µM | > 100 µM | > 50 µM | > 25 µM | > 25 µM | > 100 µM | > 100 µM | 12 µM |  | 
5 | CCCCCn1cnc2c(-c3ccc(OC(F)(F)F)cc3)nc(N3CCC(c4ccccc4)CC3)nc21 [4t, 9-Pentyl-2-(4-phenylpiperidin-1-yl)-6-(4-(trifluoromethoxy)phenyl)-9H-purine] | 150 to 153 °C | > 50 µM | > 100 µM | > 100 µM | > 50 µM | > 25 µM | > 25 µM | > 100 µM | > 100 µM |  |  | 
6 | FC(F)(F)c1ccc(N2CCN(c3nc(Cl)nc4c3ncn4C3CCCC3)CC2)nc1 [7c, 2-Chloro-9-cyclopentyl-6-(4-(5-(trifluoromethyl)pyridin-2-yl)piperazin-1-yl)-9H-purine] | 160 to 162 °C | 17 ± 2.3 µM | 4.8 µM | > 100 µM | > 50 µM | 0.52 ± 0.05 µM | 0.4 to 1.5 µM | 56 ± 1 µM | > 100 µM | 17 µM | 3.3 | IC50 (NCI-H460; [5]): 4.79 µM; Selectivity Index (SI) MRC-5/NCI-H460 (NCI-H460): 11.7; IC50 (NCI-H460; [6]): 4.79 ± 0.07 µM; Selectivity Index (SI) MRC-5/MCF-7 (MCF-7): 107.7; Selectivity Index (SI) MRC-5/K562 (K562): 143.6; IC50 (K562): 0.39 ± 0.03 µM
7 | Clc1ccc(N2CCN(c3nc(Cl)nc4c3ncn4C3CCCC3)CC2)cc1 [7g, 2-Chloro-6-(4-(4-chlorophenyl)piperazin-1-yl)-9-cyclopentyl-9H-purine] |  | 0.3 ± 0.06 µM | 2.2 µM | > 100 µM | > 50 µM | 0.97 ± 0.07 µM | 0.71 ± 0.07 µM | 2.54 ± 0.17 µM | > 100 µM | 0.3 µM | 8.5 | IC50 (NCI-H460; [5]): 2.21 µM; Selectivity Index (SI) MRC-5/NCI-H460 (NCI-H460): 1.1; IC50 (NCI-H460; [6]): 2.21 ± 0.03 µM; Selectivity Index (SI) MRC-5/MCF-7 (MCF-7): 2.6; Selectivity Index (SI) MRC-5/K562 (K562): 3.6; level of mitogenic transducer pERK1/2 (pERK1/2): potently reduced; apoptotic cells (HL-60 cells): ~30%; population of MCF7 cells in the G1-phase (MCF7 cells): slightly increased
8 | COc1ccc(N2CCN(c3nc(Cl)nc4c3ncn4C3CCCC3)CC2)cc1 [7j, 2-Chloro-9-cyclopentyl-6-(4-(4-methoxyphenyl)piperazin-1-yl)-9H-purine] |  | 1.5 ± 0.07 µM | < 10 µM | > 100 µM | > 50 µM | 6.61 ± 0.67 µM | 3.38 ± 0.71 µM | 30 ± 1 µM | > 100 µM | 1.5 µM | 20.0 | IC50 (NCI-H460; [5]): 7.08 µM; Selectivity Index (SI) MRC-5/NCI-H460 (NCI-H460): 4.2; IC50 (NCI-H460; [6]): 7.08 ± 0.22 µM; Selectivity Index (SI) MRC-5/MCF-7 (MCF-7): 4.5; Selectivity Index (SI) MRC-5/K562 (K562): 8.8; apoptotic cells (HL-60 cells): ~70%
9 | OC[C@H]1O[C@@H](n2cnc3c(N4CCN(c5ccc(C(F)(F)F)cc5)CC4)nc(Cl)nc32)[C@H](O)[C@@H]1O [II] |  |  |  |  |  |  |  |  |  |  |  | IC50 on some cancer cell lines (cancer cell lines): sub-micromolar
10 | FC(F)(F)c1ccc(N2CCN(c3ncnc4c3ncn4C3CCCC3)CC2)cc1 [I] |  |  |  |  |  |  |  |  |  |  |  | IC50 on some cancer cell lines (cancer cell lines): sub-micromolar
11 | CC[C@H](CO)Nc1nc(NCc2ccccc2)c2ncn(C(C)C)c2n1 [Roscovitine, reference compound] |  |  |  |  |  |  |  |  |  |  |  | fold p53 activity (p53): 33.9
12 | CCNCc1ccc(C)c(NC(=O)c2ccc(Nc3nc(-c4ccc(OC(F)(F)F)cc4)c4ncn(C)c4n3)cc2)c1 [V] |  |  |  |  |  |  |  |  |  |  |  | IC50 in Gli-luciferase reporter assay [1]: nanomolar scale
